Each structure is given as a SMILES string. “Also recorded” adds a separate entry of the source.

The conditions of data set [1]: normal rats; ICG 10 μg/kg, sodium fluorescein 2 mg/kg; cited from earlier work.
For data set [2] the following is noted: normal value; cited from earlier work.
Data set [3] has as its system Mrp2, Mrp3, and Mrp4. The conditions noted are these: daily gavage for 4 days consecutively; normal mouse liver (without IRI); cited from earlier work.
The nature of data set [4]: Fluorescein clearance (bile-to-perfusate fluorescence) in ex vivo rat liver machine perfusion. The settings on record: WIT varied, CIT constant at 3 hours. The source says:
This Example presents data obtained using ex vivo rat liver tissue in a perfusion machine system and provides further evidence supporting the usefulness of such measurements as a way to assess transplant tissue health and quality. With liver transplant there are two ischemia times: warm ischemia time (WIT) which is the time from tissue removal from the donor until cold fluid perfusion into the liver tissue; after cold perfusion, the remaining ischemia is termed cold ischemia time (CIT), which is slower. Most liver tissue can tolerate up to 30 min. of WIT whereas CIT can be tolerated for up to 12 hours. A certain amount of WIT and CIT cannot be prevented since some time is always required at each stage, nevertheless the goal is to minimize WIT.
In the experiments of FIG. 39, the WIT was varied while keeping the CIT constant at 3 hours. After this regimen, the fluorescein clearance was tested and the ratio of fluorescein in bile relative to the amount in perfusate was determined at various times.

Data set [5] can be described thus: Sodium fluorescein clearance kinetics in blood and bile in the in vivo rat hepatic IRI model. More on the design: species or system Sprague-Dawley rats. The text has this: Male 7- to 8-wk-old Sprague-Dawley rats (median body weight of 243 g, interquartile range of 228-260 g, Charles River Laboratories) were housed in an animal facility accredited by the Association for Assessment and Accreditation of Laboratory Animal Care. The rats were fed Purina Lab Diet 5001 and reverse osmosis water ad libitum. All animals received humane care in accordance with the National Institutes of Health Guide for the Care and Use of Laboratory Animals. Only male rats were used in these experiments because multidrug resistance-associated protein 2 (MRP2), which is responsible for fluorescein excretion from the hepatocyte, is impaired by estradiol glucuronide. All experiments were approved by the Institutional Animal Care and Use Committee at the Medical College of Wisconsin (animal use Application No. 00004857).
We evaluated the effect of hepatic IRI on sodium fluorescein clearance by applying different warm ischemia times (WITs; 0 min, 30 min, or 60 min) and reperfusion times (1 h or 4 h). Thus, there were five experimental groups (n=5 each) based on ischemia and reperfusion times: no ischemia (control), brief ischemia (30 min) followed by 1 h of reperfusion, prolonged ischemia (60 min) followed by 1 h of reperfusion, brief ischemia (30 min) followed by 4 h of reperfusion, and prolonged ischemia (60 min) followed by 4 h of reperfusion (FIG. 32A).
Surgery was performed under isoflurane inhalation anesthesia (1%-3%; oxygen flow 1 L/min). Animals were placed on a warming pad set to obtain a temperature of around 39° C. (Far Infrared Warming Pad, Kent Scientific, Torrington, CT). A transverse abdominal incision was made, and the pedicles to the median and lateral lobes of the liver (˜70% of the volume of the liver) were temporarily occluded using a small vascular clamp (FE011K, Aesculap, Melsungen, Germany). This approach has been utilized for testing the effect of hepatic IRI on biliary excretion of fluorescein. During the designated time period for hepatic IRI, the abdominal wall was temporarily closed to prevent dehydration and heat loss.
For injection and sampling, blood vessels and the bile duct were cannulated as follows: a midline incision was made on the neck, and 8- to 10-cm polyethylene tubes were cannulated to the right jugular vein (0.58 mm inner diameter (ID)×0.97 mm outer diameter (OD); PE50, Braintree Scientific, Braintree, MA) and right carotid artery (0.28 mm ID×0.61 mm OD; PE10, Braintree Scientific, Braintree, MA). The polyethylene tubes in the vessels were attached to a 30-gauge blunt needle (SAI Infusion Technologies, Lake Villa, IL) and filled with 20 U/mL heparin in 0.9% saline. Another polyethylene tube (0.28 mm ID×0.61 mm OD; PE10, Braintree Scientific, Braintree, MA) was cannulated into the bile duct for bile sampling (FIG. 33B). The cannulation procedure was performed under a surgical microscope (Amscope, Irvine, CA).
Blood and bile were collected at eight time points over 60 min (0, 2, 5, 10, 20, 30, 45, and 60 min). At each time point, 180 μL of blood was collected by a heparin-coated syringe from the polyethylene tubing in the left carotid artery and mixed with 20 μL of heparin solution (10,000 U/mL). Of this 200-μL blood sample, 20 μL was used for whole blood analysis. The remaining 180 μL was centrifuged (3,000 rpm for 10 min), and 20 μL of supernatant was collected for plasma sample analysis. Likewise, 30 μL of bile was collected from the polyethylene tubing in the bile duct at each time point.
Once the baseline (0 min) samples were collected, sodium fluorescein (Sigma-Aldrich, St. […]
The blood, plasma, and bile samples (20 μL each) were placed in a 384-well plate (Greiner Bio-one, Monroe, NC) and covered with plastic film to minimize evaporation. The fluorescence intensity was measured in the samples using a microplate reader (CLARIOstar, BMG Labtech, Ortenberg, Germany), with the excitation set at 478 nm and emission light collected within the 505-552-nm spectral range. […]

For data set [6] the following is noted: cited from earlier work.
[7] abbreviates: severe hepatic IRI (WIT=60 min) vs control and mild IRI groups, 2 mg/kg i.v.

Take `CC1(C)C(/C=C/C=C/C=C/C=C2\N(CCCCS(=O)(=O)O)c3ccc4ccccc4c3C2(C)C)=[N+](CCCCS(=O)(=O)[O-])c2ccc3ccccc3c21` [ICG, Indocyanine green]: the “time to reach a steady state” value in data set [1] is recorded as < 30 min. In addition, in data set [2], the “ICG retention ratio after 15 min (ICGR15)” value is < 10% and the “plasma disappearance rate (ICGPDR)” value is on record as “over 18 %/min”.
Consider `Cc1c(-c2cnccn2)ssc1=S` [oltipraz], for which the “induction of Mrp2, Mrp3, and Mrp4” value in data set [3] is given as “induced”.
On to `O=C1OC2(c3ccc(O)cc3Oc3cc(O)ccc32)c2ccccc21` [sodium fluorescein], for which, in data set [4], the “area under the curve (AUC) of bile-to-perfusate fluorescence intensity” value was “inversely correlated with WIT” and the “time course of bile-to-perfusate fluorescence intensity values (excretion of fluorescein)” value was “compromised excretion”. In addition, the “time to reach a steady state” value in data set [1] is < 10 min. Moreover, the “bile-to-plasma fluorescence ratios across warm ischemia time (WIT) groups” value in data set [5] (2 mg/kg i.v., WIT 0, 30, 60 min, 1 h or 4 h reperfusion) is “inverse correlation with WIT; also recorded: stepwise decrease”. Further, in data set [5] (2 mg/kg i.v., vs control or 30-min WIT groups), the “bile-to-plasma (or bile-to-whole blood) fluorescence ratios in the 60-min WIT group” value is reported as “distinctly lower”. Besides, the “excretion of fluorescein measured by fluorescence in bile samples” value in data set [5] (IRI vs control, intravenous infusion, preliminary in vivo rat experiment (FIG. 4)) is reported as “noticeably compromised”. Besides, the “significant clearance of fluorescein from blood into bile” value in data set [5] (i.v. bolus 2 mg/kg) is reported as “observed immediately”. In addition, the “delay of clearance from blood into bile” value in data set [5] (i.v. dose of 10 mg/kg) is given as “over 1 h”. Moreover, in data set [5] (in hepatic IRI), the “hepatic clearance of fluorescein” value was “suppressed”. In addition, in data set [5] (setting [7]), the “fluorescence intensities in bile” value is “lower”; the “fluorescence intensities in whole blood and plasma” value is given as “elevated”. Further, the “time to equilibrium of fluorescence intensity in hepatocytes and bile” value in data set [6] (after dye injection) is on record as ≤ 5 min. Besides, the “time in which metabolism by the liver through membrane transporters and excretion into bile occurs” value in data set [6] (healthy liver) is ≤ 15 min. The “time to clearance from the blood into the bile” value in data set [6] (intravenous administration, normal livers) was ≤ 5 min.

Values taken from US20250324965A1, “Indicator Clearance Monitoring in Machine Perfusion of an Organ” (The Medical College of Wisconsin, Inc., priority 2021, published 2025).
